Test results taken from patent publication US20110288086A1, “POLYCYCLIC QUINAZOLINES, PREPARATION THEREOF, AND USE THEREOF” (priority 2010, published 2011).

Assays:
[1] = system: Hep3B2.1-7 human hepatoma carcinoma cells; experiment: Tumor cell inhibition ratio, CCK-8 kit, Hep3B; details: read-out: Antiproliferative effect (inhibition ratio) Hep3B
Excerpt: (§3) The inhibitory activities of the compounds on tumor cells in vitro

[2] = system: Colo320 human rectal cancer cells; experiment: Tumor cell inhibition ratio, CCK-8 kit, Colo320; details: COLO 320, read-out: Antiproliferative effect (inhibition ratio) Colo320
Excerpt: as §3

[3] = system: PC-3 human carcinoma of prostate; experiment: Tumor cell IC50, CCK-8 kit, PC-3; assay type: cell-based; details: PC-3 cells
Excerpt: (§1) The inhibitory activities of the compounds on tumor cells (IC50) in vitro
(§2) The IC50 (IC50, unit: μg/ml) values of the compounds on Hut78 T-Lymphocytic Leukemia cells, Jurkat E6-1 human T-cell lymphoma, PANC-1 human pancreatic cancer cells, A549 human lung cancer cells, K562 human chronicity marrow leukemic cells, Hep3B2. 1-7 human hepatoma carcinoma cells, MDA-MB-435s human breast carcinoma cells, Colo320 human rectal cancer cells, PC-3 human carcinoma of prostate, and HepG2 human hepatoma carcinoma cells were determined using a CCK-8 kit. Erlotinib hydrochloride was used as the positive control drug.

[4] = system: PANC-1 human pancreatic cancer cells; experiment: Tumor cell inhibition ratio, CCK-8 kit, PANC-1; details: PANC-1, read-out: Antiproliferative effect (inhibition ratio) PANC-1
Excerpt: as §3

[5] = system: PC-3 human carcinoma of prostate; experiment: Tumor cell inhibition ratio, CCK-8 kit, PC-3; details: read-out: Antiproliferative effect (inhibition ratio) PC-3
Excerpt: as §3

[6] = system: A549 human lung cancer cells; experiment: Tumor cell inhibition ratio, CCK-8 kit, A549; details: A549, read-out: Antiproliferative effect (inhibition ratio) A549
Excerpt: as §3

[7] = system: Hep3B2. 1-7 human hepatoma carcinoma cells; experiment: Tumor cell IC50, CCK-8 kit, Hep3B; assay type: cell-based
Excerpt: as §1, §2

[8] = system: A549 human lung cancer cells; experiment: Tumor cell IC50, CCK-8 kit, A549; assay type: cell-based
Excerpt: as §1, §2

[9] = biological target: EGFR tyrosine kinase (Homo sapiens, UniProt P00533); experiment: EGFR tyrosine kinase inhibition in vitro (Invitrogen EGFR inhibitor screening kit PV3193)
Excerpt: The inhibitory activities of EGFR tyrosine kinase in vitro
Erlotinib hydrochloride was used as a positive control drug.

[10] = Acute Toxicity Study; details: in vivo; preliminary screening, Bliss statistical method
Procedure: The acute toxicity experiments were carried out according to the methods disclosed in the book of Modern Pharmacological Methods, edited chiefly by Zhang Jun-Tian.

[11] = system: Hut78 T-Lymphocytic Leukemia cells; experiment: Tumor cell IC50, CCK-8 kit, Hut78; assay type: cell-based; details: Homo sapiens, Hut-78 cells
Excerpt: as §1, §2

[12] = system: Jurkat E6-1 human T-cell lymphoma; experiment: Tumor cell inhibition ratio, CCK-8 kit, Jurkat E6-1; details: Jurkat E6.1, read-out: Antiproliferative effect (inhibition ratio) E6-1
Excerpt: as §3

[13] = system: K562 human chronicity marrow leukemic cells; experiment: Tumor cell IC50, CCK-8 kit, K562; assay type: cell-based
Excerpt: as §1, §2

[14] = system: MDA-MB-435s human breast carcinoma cells; experiment: Tumor cell inhibition ratio, CCK-8 kit, MDA-MB-435s; details: read-out: Antiproliferative effect (inhibition ratio) 435s
Excerpt: as §3

[15] = system: Hut78 T-Lymphocytic Leukemia cells; experiment: Tumor cell inhibition ratio, CCK-8 kit, Hut78; details: Homo sapiens, HuT78, read-out: Antiproliferative effect (inhibition ratio) Hut-78
Excerpt: as §3

[16] = system: PANC-1 human pancreatic cancer cells; experiment: Tumor cell IC50, CCK-8 kit, PANC-1; assay type: cell-based; details: PANC-1 cells
Excerpt: as §1, §2

[17] = biological target: T1, aurora kinase B (Homo sapiens, UniProt Q96GD4); experiment: Aurora kinase B inhibition in vitro (Invitrogen aurora kinase screening kit PV3174); assay type: biochemical
T1 construct: purchased Invitrogen PV3174

[18] = system: K562 human chronicity marrow leukemic cells; experiment: Tumor cell inhibition ratio, CCK-8 kit, K562; details: K562, read-out: Antiproliferative effect (inhibition ratio) K562
Excerpt: as §3

[19] = system: Jurkat E6-1 human T-cell lymphoma; experiment: Tumor cell IC50, CCK-8 kit, Jurkat E6-1; assay type: cell-based; details: E6-1 cells
Excerpt: as §1, §2

[20] = system: MDA-MB-435s human breast carcinoma cells; experiment: Tumor cell IC50, CCK-8 kit, MDA-MB-435s; assay type: cell-based; details: 435s cells
Excerpt: as §1, §2

[21] = system: Colo320 human rectal cancer cells; experiment: Tumor cell IC50, CCK-8 kit, Colo320; assay type: cell-based; details: COLO 320
Excerpt: as §1, §2

T1 sequence (Q96GD4 whole entry): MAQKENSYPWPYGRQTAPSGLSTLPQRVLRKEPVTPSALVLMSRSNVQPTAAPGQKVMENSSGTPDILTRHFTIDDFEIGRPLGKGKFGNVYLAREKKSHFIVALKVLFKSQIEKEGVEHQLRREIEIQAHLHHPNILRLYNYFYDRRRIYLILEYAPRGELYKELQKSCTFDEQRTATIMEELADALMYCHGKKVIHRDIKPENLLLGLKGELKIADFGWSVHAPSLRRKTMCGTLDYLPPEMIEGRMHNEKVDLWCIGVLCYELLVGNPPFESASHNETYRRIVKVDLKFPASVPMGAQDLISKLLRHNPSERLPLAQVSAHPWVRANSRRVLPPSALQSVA
Chain of EGFR tyrosine kinase (P00533 25-1210): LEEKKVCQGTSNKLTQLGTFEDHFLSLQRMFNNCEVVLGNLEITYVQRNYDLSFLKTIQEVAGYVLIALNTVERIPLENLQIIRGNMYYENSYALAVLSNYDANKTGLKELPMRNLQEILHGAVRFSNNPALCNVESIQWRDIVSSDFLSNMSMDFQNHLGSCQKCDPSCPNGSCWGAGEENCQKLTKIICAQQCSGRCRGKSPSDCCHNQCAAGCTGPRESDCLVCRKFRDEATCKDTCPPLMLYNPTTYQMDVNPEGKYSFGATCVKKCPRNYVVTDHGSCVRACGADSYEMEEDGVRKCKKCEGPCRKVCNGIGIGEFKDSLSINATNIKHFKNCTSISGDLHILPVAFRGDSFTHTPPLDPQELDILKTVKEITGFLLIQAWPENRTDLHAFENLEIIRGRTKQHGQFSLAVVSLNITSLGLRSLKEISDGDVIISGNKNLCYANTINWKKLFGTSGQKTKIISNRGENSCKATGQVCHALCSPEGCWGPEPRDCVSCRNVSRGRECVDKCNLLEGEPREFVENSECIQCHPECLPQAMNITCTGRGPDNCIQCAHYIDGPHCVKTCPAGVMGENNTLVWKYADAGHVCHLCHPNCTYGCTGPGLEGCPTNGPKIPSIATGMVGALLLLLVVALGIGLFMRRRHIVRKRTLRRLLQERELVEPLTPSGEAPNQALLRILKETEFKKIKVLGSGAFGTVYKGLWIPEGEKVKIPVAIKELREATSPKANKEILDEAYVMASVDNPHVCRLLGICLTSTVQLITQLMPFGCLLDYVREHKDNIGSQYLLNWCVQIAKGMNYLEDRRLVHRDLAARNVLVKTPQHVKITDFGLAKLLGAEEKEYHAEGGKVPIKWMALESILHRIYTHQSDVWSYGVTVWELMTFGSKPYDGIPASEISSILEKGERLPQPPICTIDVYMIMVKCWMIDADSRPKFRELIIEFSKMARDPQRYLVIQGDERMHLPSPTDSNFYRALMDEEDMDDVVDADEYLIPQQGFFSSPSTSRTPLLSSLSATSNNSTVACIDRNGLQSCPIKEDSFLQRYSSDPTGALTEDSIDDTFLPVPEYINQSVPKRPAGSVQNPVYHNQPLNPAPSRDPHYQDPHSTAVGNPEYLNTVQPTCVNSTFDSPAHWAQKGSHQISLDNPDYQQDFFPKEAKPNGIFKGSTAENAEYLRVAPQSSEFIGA

Which inhibition at 10 µM [1] does the source give for COCCOc1cc2c(cc1OCCOC)C1=Nc3cc(COS(C)(=O)=O)cc([N+](=O)[O-])c3CN1C=N2.Cl [Compound V-20, mesylate-{9-nitro-2,3-bis(2-methoxyethoxy)-8H-quinazolino[4,3-b]quinazoline-11-methanol}ester hydrochloride] here?
The inhibition at 10 µM was 60.7%.

And the inhibition at 100 µM [1]?
The inhibition at 100 µM was 92.2%.

And the inhibition at 10 µM [2]?
The inhibition at 10 µM was 66.9%.

And the inhibition at 100 µM [2]?
Its inhibition at 100 µM is 92.3%.

And the IC50 [3]?
The IC50 was 22.7 µg/mL.

And the inhibition at 10 µM [4]?
The inhibition at 10 µM was 54.8%.

And the inhibition at 100 µM [4]?
The inhibition at 100 µM was 88.2%.

And the inhibition at 10 µM [5]?
The inhibition at 10 µM was 46.8%.

What about the inhibition at 100 µM [5] of the same molecule?
The inhibition at 100 µM was 75.2%.

What about the inhibition at 10 µM [6] of the same molecule?
Its inhibition at 10 µM is 55%.

What about the inhibition at 100 µM [6] of the same molecule?
The inhibition at 100 µM was 90.7%.

And the IC50 [7]?
The IC50 was 71.4 µg/mL.

And the IC50 [8]?
Its IC50 is 12.1 µg/mL.

What about the “The inhibition ratio of the compound on EGFR(%)” value ([9]; 40 μM) of the same molecule?
The value was 59.9%.

What about the “The inhibition ratio of the compound on EGFR(%)” value ([9]; 200 μM) of the same molecule?
The value was 98.4%.

What about the LD50 [10] of the same molecule?
Its LD50 is 750 mg/kg.

And the IC50 [11]?
Its IC50 is 55.3 µg/mL.

What about the inhibition at 10 µM [12] of the same molecule?
The inhibition at 10 µM was 57.9%.

What about the inhibition at 100 µM [12] of the same molecule?
Its inhibition at 100 µM is 95.6%.

And the IC50 [13]?
Its IC50 is 10.1 µg/mL.

What about the inhibition at 10 µM [14] of the same molecule?
The inhibition at 10 µM was 65.7%.

What about the inhibition at 100 µM [14] of the same molecule?
The inhibition at 100 µM was 93.9%.

And the inhibition at 10 µM [15]?
The inhibition at 10 µM was 52.3%.

What about the inhibition at 100 µM [15] of the same molecule?
The inhibition at 100 µM was 82.1%.

And the IC50 [16]?
The IC50 was 3.72 µg/mL.

And the “The inhibition ratio of the compound on Aurora B(%)” value ([17]; 40 μM)?
Its value is 58.9%.

What about the “The inhibition ratio of the compound on Aurora B(%)” value ([17]; 200 μM) of the same molecule?
Its value is 96.4%.

And the inhibition at 10 µM [18]?
Its inhibition at 10 µM is 40.7%.

What about the inhibition at 100 µM [18] of the same molecule?
Its inhibition at 100 µM is 97.4%.

What about the IC50 [19] of the same molecule?
The IC50 was 0.05 µg/mL.

And the IC50 [20]?
The IC50 was 16.8 µg/mL.

And the IC50 [21]?
The IC50 was 13.1 µg/mL.
